Data: patent publication US8471005B2 (Cephalon, Inc., priority 2008, dated 2013)
pIC50: −log10 of the molar value. Where two headings read alike, the source gives them in different places.

Tests used:
JAK2 = molecular target: T1, JAK2 (Homo sapiens, UniProt O60674); experiment: Recombinant Human JAK2 Kinase Assay (TRF); format: biochemical; details: read-out: JAK2 Potency
T1 construct: host or cells: baculovirus expression system
Summary of the method: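 Baculovirus-expressed JAK2 (15 ng/ml) phosphorylated a biotinylated 15-mer peptide captured on Neutravidin-coated plates, in 20 mM HEPES pH 7.2 with 0.2 μM ATP, 1 mM MnCl2, 0.1% BSA and 2.5% DMSO. Reaction ran 20 min at room temperature; phosphopeptide was detected by time-resolved fluorescence with Eu-N1-labelled PY100 antibody.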

ALK = molecular target: T2, ALK (Homo sapiens, UniProt Q9UM73); experiment: ALK Kinase Assay (ELISA/TRF, PLC-γ substrate); format: biochemical; details: read-out: ALK Potency
T2 construct: host or cells: baculovirus expression system
T2 sequence (Q9UM73 19-1620): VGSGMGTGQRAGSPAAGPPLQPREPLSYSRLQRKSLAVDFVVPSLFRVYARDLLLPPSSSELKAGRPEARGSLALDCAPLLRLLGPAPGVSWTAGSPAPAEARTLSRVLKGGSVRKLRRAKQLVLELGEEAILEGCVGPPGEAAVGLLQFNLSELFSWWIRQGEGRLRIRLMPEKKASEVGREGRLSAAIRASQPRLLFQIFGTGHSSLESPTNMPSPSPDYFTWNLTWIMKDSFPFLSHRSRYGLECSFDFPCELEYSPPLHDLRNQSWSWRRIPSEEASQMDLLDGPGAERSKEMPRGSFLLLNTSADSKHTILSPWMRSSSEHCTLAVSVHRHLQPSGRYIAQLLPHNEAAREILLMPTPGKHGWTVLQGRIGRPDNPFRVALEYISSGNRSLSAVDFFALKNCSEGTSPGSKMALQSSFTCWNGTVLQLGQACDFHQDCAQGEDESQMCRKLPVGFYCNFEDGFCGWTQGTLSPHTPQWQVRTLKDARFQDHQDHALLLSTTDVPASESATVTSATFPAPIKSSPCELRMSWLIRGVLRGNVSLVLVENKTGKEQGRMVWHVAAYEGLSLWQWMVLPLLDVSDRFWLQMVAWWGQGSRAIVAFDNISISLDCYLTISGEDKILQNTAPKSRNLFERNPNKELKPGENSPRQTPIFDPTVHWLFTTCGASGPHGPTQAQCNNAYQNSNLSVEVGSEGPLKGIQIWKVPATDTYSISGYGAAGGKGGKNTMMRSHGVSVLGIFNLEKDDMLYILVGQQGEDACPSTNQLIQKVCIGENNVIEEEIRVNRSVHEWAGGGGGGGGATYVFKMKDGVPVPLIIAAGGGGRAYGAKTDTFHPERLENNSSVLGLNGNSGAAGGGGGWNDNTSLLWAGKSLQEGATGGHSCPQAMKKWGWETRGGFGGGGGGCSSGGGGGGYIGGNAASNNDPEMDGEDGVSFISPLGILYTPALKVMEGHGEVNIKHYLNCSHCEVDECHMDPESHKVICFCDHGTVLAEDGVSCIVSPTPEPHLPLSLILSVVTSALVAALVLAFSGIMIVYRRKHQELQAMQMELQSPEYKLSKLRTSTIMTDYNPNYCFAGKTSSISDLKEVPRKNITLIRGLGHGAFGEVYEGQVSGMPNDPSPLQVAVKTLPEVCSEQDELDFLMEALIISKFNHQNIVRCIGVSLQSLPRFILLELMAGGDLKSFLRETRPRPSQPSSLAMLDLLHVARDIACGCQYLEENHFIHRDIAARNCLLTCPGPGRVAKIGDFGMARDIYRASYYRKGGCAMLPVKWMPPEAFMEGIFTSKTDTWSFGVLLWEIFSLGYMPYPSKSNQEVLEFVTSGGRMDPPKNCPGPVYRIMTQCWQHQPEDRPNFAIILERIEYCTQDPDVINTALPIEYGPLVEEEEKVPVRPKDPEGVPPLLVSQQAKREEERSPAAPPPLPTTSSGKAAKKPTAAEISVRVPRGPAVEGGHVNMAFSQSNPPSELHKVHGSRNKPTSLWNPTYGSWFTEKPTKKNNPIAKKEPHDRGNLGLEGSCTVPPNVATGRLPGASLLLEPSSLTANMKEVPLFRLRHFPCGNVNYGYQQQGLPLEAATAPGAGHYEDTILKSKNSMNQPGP
Summary of the method: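 PLC-γ substrate coated at 10 μg/mL in TBS; reaction started with 30 ng/ml ALK, run 15 min at 37° C. Phosphoproduct detected by TRF with Eu-N1-labeled PT66 anti-phosphotyrosine antibody. IC50 from sigmoidal variable-slope fit of percent inhibition versus log concentration.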

[1] = JAK2 kinase inhibition, 0.2 μM ATP
[2] = ALK kinase inhibition, 1 μM ATP

T1 sequence (O60674 whole entry): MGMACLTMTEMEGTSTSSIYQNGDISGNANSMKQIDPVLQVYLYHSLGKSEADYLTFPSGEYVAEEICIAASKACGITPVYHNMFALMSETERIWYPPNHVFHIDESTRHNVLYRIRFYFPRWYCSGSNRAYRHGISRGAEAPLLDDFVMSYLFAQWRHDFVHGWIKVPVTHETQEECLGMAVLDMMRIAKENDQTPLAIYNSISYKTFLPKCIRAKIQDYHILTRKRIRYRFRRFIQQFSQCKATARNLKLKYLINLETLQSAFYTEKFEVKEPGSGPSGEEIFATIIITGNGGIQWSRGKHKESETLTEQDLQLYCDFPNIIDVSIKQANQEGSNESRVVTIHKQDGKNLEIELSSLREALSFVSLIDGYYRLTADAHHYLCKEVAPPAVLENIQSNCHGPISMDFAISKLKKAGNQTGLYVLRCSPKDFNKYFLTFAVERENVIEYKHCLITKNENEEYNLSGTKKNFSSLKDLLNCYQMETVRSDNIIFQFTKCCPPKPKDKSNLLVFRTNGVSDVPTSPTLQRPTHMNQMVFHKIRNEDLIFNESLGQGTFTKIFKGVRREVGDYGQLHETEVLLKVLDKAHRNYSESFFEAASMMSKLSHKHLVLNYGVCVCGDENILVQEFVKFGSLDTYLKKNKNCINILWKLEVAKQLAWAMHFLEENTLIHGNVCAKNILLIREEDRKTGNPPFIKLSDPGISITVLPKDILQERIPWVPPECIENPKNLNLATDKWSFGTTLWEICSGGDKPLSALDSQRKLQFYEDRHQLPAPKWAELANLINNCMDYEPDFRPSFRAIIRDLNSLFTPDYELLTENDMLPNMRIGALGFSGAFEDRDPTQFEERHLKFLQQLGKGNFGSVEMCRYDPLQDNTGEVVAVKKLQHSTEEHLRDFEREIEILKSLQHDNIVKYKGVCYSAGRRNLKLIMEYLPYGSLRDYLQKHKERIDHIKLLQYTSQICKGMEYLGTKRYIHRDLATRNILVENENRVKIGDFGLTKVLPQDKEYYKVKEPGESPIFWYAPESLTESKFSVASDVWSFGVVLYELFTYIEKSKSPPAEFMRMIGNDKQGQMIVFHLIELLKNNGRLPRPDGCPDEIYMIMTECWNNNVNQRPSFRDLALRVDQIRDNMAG

pIC50 (JAK2; [1]) | pIC50 (ALK; [2]) | pIC50 (JAK2; JAK2 Kinase Inhibition) | pIC50 (ALK; ALK Kinase Inhibition) | Compound
> 7.00 | 5.00 to 6.00 | – | – | Cc1nc2cc(Nc3ncc4ccc(-c5cccc(S(C)(=O)=O)c5)n4n3)ccc2o1 [Example 599, [7-(3-Methanesulfonyl-phenyl)-pyrrolo[2,1-f][1,2,4]triazin-2-yl]-(2-methyl-benzoxazol-5-yl)-amine]
5.00 to 6.00 | > 7.00 | – | – | COc1cc(CN2CCN(C)CC2)ccc1Nc1ncc2ccc(-c3ccccc3N(C)S(C)(=O)=O)n2n1 [Example 1251, N-(2-{2-[2-Methoxy-4-(4-methyl-piperazin-1-ylmethyl)-phenylamino]-pyrrolo[2,1-f][1,2,4]triazin-7-yl}-phenyl)-N-methyl-methanesulfonamide]
> 7.00 | 5.00 to 6.00 | – | – | CN1CCN(c2ccc(Nc3ncc4ccc(-c5ccccc5CNCCS(C)(=O)=O)n4n3)cc2)CC1 [Example 1199, (7-{2-[(2-M ethanesulfonyl-ethylamino)-methyl]-phenyl}-pyrrolo[2,1-f][1,2,4]triazin-2-yl)-[4-(4-methyl-piperazin-1-yl)-phenyl]-amine]
– | – | 5.00 to 6.00 | 6.00 to 7.00 | COc1cc(N2CCC(N3CCN(C)CC3)CC2)ccc1Nc1ncc2cc3ccccc3n2n1 [Example 262, {2-Methoxy-4-[4-(4-methyl-piperazin-1-yl)-piperidin-1-yl]-phenyl}-[1,2,4]triazino[1,6-a]indol-2-yl-amine]
> 7.00 | 5.00 to 6.00 | – | – | COc1ccccc1-c1ccc2cnc(Nc3ccc(N4CCOCC4)cn3)nn12 [Example 1202, [7-(2-Methoxy-phenyl)-pyrrolo[2,1-f][1,2,4]triazin-2-yl]-(5-morpholin-4-yl-pyridin-2-yl)-amine]
> 7.00 | > 7.00 | – | – | COc1ccc(Cl)cc1-c1ccc2cnc(Nc3ccc(C4CCN(CC(N)=O)CC4)cc3)nn12 [Example 1024]
– | – | > 7.00 | > 7.00 | COc1ccccc1-c1ccc2cnc(Nc3ccc(OCCN4CCOCC4)cc3)nn12 [Example 128, [7-(2-Methoxy-phenyl)-pyrrolo[2,1-f][1,2,4]triazin-2-yl]-[4-(2-morpholin-4-yl-ethoxy)-phenyl]-amine]
– | – | > 7.00 | < 5.00 | N#Cc1cccc(-c2ccc3cnc(Nc4ccc(N5CCOCC5)cc4)nn23)c1 [Example 39, 3-[2-(4-Morpholin-4-yl-phenylamino)-pyrrolo[2,1-f][1,2,4]triazin-7-yl]-benzonitrile]
6.00 to 7.00 | > 7.00 | – | – | COc1cc(C2CCN(C)CC2)ccc1Nc1ncc2ccc(-c3cccc4c3OCC4)n2n1 [Example 705, [7-(2,3-Dihydro-benzofuran-7-yl)-pyrrolo[2,1-f][1,2,4]triazin-2-yl]-[2-methoxy-4-(1-methyl-piperidin-4-yl)-phenyl]-amine]
> 7.00 | > 7.00 | – | – | COc1ccccc1-c1ccc2cnc(Nc3ccc(C4CCNCC4)nc3)nn12 [Example 1026, (1′,2′,3′,4′,5′,6′-Hexahydro-[2,4]bipyridinyl-5-yl)-[7-(2-methoxy-phenyl)-pyrrolo[2,1-f][1,2,4]triazin-2-yl]-amine]
6.00 to 7.00 | > 7.00 | – | – | COc1cc(N2CCC[C@@H](CN3CCN(C)CC3)C2)ccc1Nc1ncc2ccc(-c3ccccc3OC)n2n1 [Example 470, {2-Methoxy-4-[(S)-3-(4-methyl-piperazin-1-ylmethyl)-piperidin-1-yl]-phenyl}-[7-(2-methoxy-phenyl)-pyrrolo[2,1-f][1,2,4]triazin-2-yl]-amine]
– | – | > 7.00 | > 7.00 | COc1ccccc1-c1ccc2cnc(Nc3cccc(C4(O)CCNCC4)c3)nn12 [Example 1565, 4-{3-[7-(2-Methoxy-phenyl)-pyrrolo[2,1-f][1,2,4]triazin-2-ylamino]-phenyl}-piperidin-4-ol]
– | – | > 7.00 | 6.00 to 7.00 | COc1ccc(Nc2ncc3ccc(-c4cc(Cl)ccc4OC)n3n2)cc1OC [Example 151, [7-(5-Chloro-2-methoxy-phenyl)-pyrrolo[2,1-f][1,2,4]triazin-2-yl]-(3,4-dimethoxy-phenyl)-amine]
– | – | > 7.00 | > 7.00 | COc1ccccc1-c1ccc2cnc(Nc3ccc(N4CCC(N5CCN(C)CC5)CC4)cc3)nn12 [Example 310, [7-(2-Methoxy-phenyl)-pyrrolo[2,1-f][1,2,4]triazin-2-yl]-{4-[4-(4-methyl-piperazin-1-yl)-piperidin-1-yl]-phenyl}-amine]
– | – | > 7.00 | 6.00 to 7.00 | FC1(F)Oc2cccc(-c3ccc4cnc(Nc5ccc6[nH]c(CN7CCOCC7)nc6c5)nn34)c2O1 [Example 1536, [7-(2,2-Difluoro-benzo[1,3]dioxol-4-yl)-pyrrolo[2,1-f][1,2,4]triazin-2-yl]-(2-morpholin-4-ylmethyl-1H-benzoimidazol-5-yl)-amine]
> 7.00 | < 5.00 | – | – | CN1CCN(c2ccc(Nc3ncc4cc(-c5ccncc5)cn4n3)cc2)CC1 [Example 1158]
6.00 to 7.00 | > 7.00 | – | – | COc1cc(N2CCCN(C)CC2)ccc1Nc1ncc2ccc(-c3ccccc3N(C)S(C)(=O)=O)n2n1 [Example 771, N-(2-{2-[2-Methoxy-4-(4-methyl-[1,4]diazepan-1-yl)-phenylamino]-pyrrolo[2,1-f][1,2,4]triazin-7-yl}-phenyl)-N-methyl-methanesulfonamide]
6.00 to 7.00 | 6.00 to 7.00 | – | – | COc1cc(N2CCC3(CC2)OCCO3)ccc1Nc1ncc2ccc(-c3ccccc3OC)n2n1 [Example 482, [4-(1,4-Dioxa-8-aza-spiro[4.5]dec-8-yl)-2-methoxy-phenyl]-[7-(2-methoxy-phenyl)-pyrrolo[2,1-f][1,2,4]triazin-2-yl]-amine]
– | – | 6.00 to 7.00 | < 5.00 | COCCOc1ncc2ccc(-c3ccc(S(C)(=O)=O)cc3)n2n1 [Example 197, 7-(4-Methanesulfonyl-phenyl)-2-(2-methoxy-ethoxy)-pyrrolo[2,1-f][1,2,4]triazine]
5.00 to 6.00 | > 7.00 | – | – | COc1cc(CN2CCC(O)CC2)ccc1Nc1ncc2ccc(-c3ccccc3N(C)S(C)(=O)=O)n2n1 [Example 1234, N-(2-{2-[4-(4-Hydroxy-piperidin-1-ylmethyl)-2-methoxy-phenylamino]-pyrrolo[2,1-f][1,2,4]triazin-7-yl}-phenyl)-N-methyl-methanesulfonamide]
> 7.00 | 6.00 to 7.00 | – | – | CC(C)(C)NS(=O)(=O)c1cccc(-c2ccc3cnc(Nc4ccc5ncn(CCN6CCOCC6)c5c4)nn23)c1 [Example 1326, N-tert-Butyl-3-{2-[3-(2-morpholin-4-yl-ethyl)-3H-benzimidazol-5-ylamino]-pyrrolo[2,1-f][1,2,4]triazin-7-yl}-benzenesulfonamide]

Compound | pIC50 (JAK2; [1]) | pIC50 (ALK; [2]) | pIC50 (JAK2; JAK2 Kinase Inhibition) | pIC50 (ALK; ALK Kinase Inhibition)
N-{2-[2-(5,5-Dimethyl-2-oxo-2,3,4,5-tetrahydro-1H-benzo[b]azepin-7-ylamino)pyrrolo[2,1-f][1,2,4]triazin-7-yl}-phenyl]methanesulfonamide [Example 624] | > 7.00 | > 7.00 | – | –
CS(=O)(=O)c1ccc(-c2ccc3cnc(Nc4ccc(C5(C#N)CCN(CC(N)=O)CC5)cc4)nn23)cc1 [Example 1547, 2-(4-Cyano-4-{4-[7-(4-methanesulfonyl-phenyl)-pyrrolo[2,1-f][1,2,4]triazin-2-ylamino]-phenyl}-piperidin-1-yl)-acetamide] | – | – | > 7.00 | 5.00 to 6.00
